Measurements from patent US20240383908A1, “SYNTHESIS AND APPLICATION OF PHOSPHATASE DEGRADER” (HINOVA PHARMACEUTICALS INC., priority 2021, published 2024).
pIC50: −log10 of the molar value. Structures can show the parent of a compound that is named as a salt.

Assays:
Assay type in all cases: cell-based
MIA Paca-2 = assay: Inhibition of cell proliferation, MIA Paca-2 (CCK-8); settings: Homo sapiens, MIA Paca-2 cells, read-out: Inhibition activity on the proliferation of different cell lines MIA Paca-2 (IC50)
Protocol: (§1) (1) MV-411 cells were cultured in the cell culture medium, and then well-growing cells were selected and inoculated in a 96-well plate at 80 μL/well, with 2×10^4 cells/well. The plate was incubated overnight in a 5% CO2 cell incubator at 37° C.
(§2) (2) 10 mM storage solution of each drug was prepared using dimethylsulfoxide (DMSO). The stock solution was diluted in a ratio of 1:3 with DMSO before use, and then the solution was serially diluted in a ratio of 1:3, to obtain 9 gradient concentrations. Each concentration was further diluted with the medium in a ratio of 1:200 (to ensure that the DMSO concentration in the culture system was 0.1%). Two wells were set for each concentration. 20 μL of each compound solution was added to the cell culture well (with a final concentration of 10 μM, 3.3 μM, 1.1 μM . . . ). The plate was gently shaken and mixed. Additionally, 3 negative control wells (only containing cells) and 3 blank control wells (only containing the medium) were included (6 wells were each added with 20 μL of DMSO diluted with the medium in a ratio of 1:200).
(§3) (1) After 5 days of cultivation, 10 μL of CCK-8 was added to each well, and then the plate was further cultured for 3 h at 37° C. in a 5% CO2 cell incubator.
(§4) (2) The absorbance (OD value) was measured at 450 nm with a multifunctional microplate reader. (3) The data were analyzed using the Dose-response-inhibition equation in GraphPad Prism8 software to obtain the IC50 value.
(§5) Using a similar method, the IC50 value (nM) for the inhibitory activity of the compound according to the present invention against different cell lines was obtained, and the results are shown in Table 3 (++++: IC50>5 μM; +++: 1 μM<IC50<5 μM; ++: IC50<1 μM).

MV-411 cell line = assay: Inhibition of cell proliferation, MV-411 (CCK-8); settings: Homo sapiens, MV4-11, 120 h, MV411 cells, 5 days, read-out: Inhibition activity on the proliferation of different cell lines MV411 (IC50)
Protocol: • MV-411 cell line (COBIER, CBP-60522) • FBS (GEMINI, Cat. No. 900-108) • 0.01M PBS (Biosharp, Cat. No. 162262) • IMDM (Hyclone, Cat. No. SH30228.01) • Penicillin-Streptomycin (Gibco, Cat. No. 15140122) • DMSO (Sigma, Cat. No. D5879) • Cell counting kit-8 (Signalway Antibody, Cat. No. CP002) • Centrifuge Tube, 15 ml (Excell Bio, Cat. No. CS015-0001) • Cell Culture Dish, (WHB, Cat. No. CS016-0128) • 96-well cell culture cluster (Corning, Cat. No. 3599)
• (1) Cell culture medium: IMDM medium+10% FBS+1% Pen Strep; • (2) PBS buffer: PBS powder was dissolved in 2 L of ultrapure water and sterilized;
as §1, §2, §3, §4

NCI-H358 = assay: Inhibition of cell proliferation, NCI-H358 (CCK-8); settings: Homo sapiens, NCI-H358 cells, read-out: Inhibition activity on the proliferation of different cell lines NCI-H358 (IC50)
Protocol: as §1, §2, §3, §4, §5

SHP2 protein [1] = target: T1, SHP2 protein (Homo sapiens, UniProt Q06124); assay: Degradation activity on SHP2 protein in MV-411 cells (Western blot, DC50); parameters: endogenous in cells; settings: MV411 cells, 24 hours, read-out: Degradation activity for differenct cell lines MV411 (DC50)
T1 sequence (Q06124 1-593): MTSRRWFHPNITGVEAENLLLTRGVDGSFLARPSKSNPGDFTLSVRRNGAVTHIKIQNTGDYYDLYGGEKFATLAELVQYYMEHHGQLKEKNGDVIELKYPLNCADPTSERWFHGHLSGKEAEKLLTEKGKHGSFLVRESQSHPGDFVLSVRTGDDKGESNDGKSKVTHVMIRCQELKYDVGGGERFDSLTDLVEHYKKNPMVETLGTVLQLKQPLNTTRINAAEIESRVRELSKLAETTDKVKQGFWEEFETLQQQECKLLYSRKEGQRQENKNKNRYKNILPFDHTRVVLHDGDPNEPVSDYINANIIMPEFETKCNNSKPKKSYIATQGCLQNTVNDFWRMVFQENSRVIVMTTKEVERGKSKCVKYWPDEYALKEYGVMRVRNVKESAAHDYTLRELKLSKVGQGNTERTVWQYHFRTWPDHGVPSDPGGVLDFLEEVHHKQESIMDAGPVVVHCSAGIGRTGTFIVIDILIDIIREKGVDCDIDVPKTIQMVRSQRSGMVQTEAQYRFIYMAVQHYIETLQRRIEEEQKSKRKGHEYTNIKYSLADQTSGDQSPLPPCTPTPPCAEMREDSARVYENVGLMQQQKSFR
Summary of the method: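 Western blot of SHP2 (GAPDH loading control, 30 μg protein/lane) in lysates of MV-411 cells exposed 24 h to final compound concentrations of 100, 10, 3, 1, 0.3 and 0.1 nM (0.1% DMSO). Degradation relative to DMSO set at 100%; DC50 derived by curve fitting.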

SHP2 protein [2] = target: T1, SHP2 protein; assay: Degradation activity on SHP2 protein in NCI-H358 cells (Western blot, DC50); parameters: endogenous in cells; settings: read-out: Degradation activity for differenct cell lines NCI-H358 (DC50)
Summary of the method: (§6)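 DC50 is the concentration degrading 50% of SHP2 relative to DMSO control. It was derived by fitting Western blot band densitometry (anti-SHP2, GAPDH reference) from cells exposed 24 h to 0.1–100 nM compound in 0.1% DMSO.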

SHP2 protein [3] = target: T1, SHP2 protein; assay: Degradation activity on SHP2 protein in MIA Paca-2 cells (Western blot, DC50); parameters: endogenous in cells; host or cells: MIA Paca-2 cells; settings: read-out: Degradation activity for differenct cell lines MIA Paca-2 (DC50)
Summary of the method: as §6

KYSE 520 = assay: Inhibition of cell proliferation, KYSE 520 (CCK-8); settings: Homo sapiens, KYSE 520 cells, read-out: Inhibition activity on the proliferation of different cell lines KYSE 520 (IC50)
Protocol: as §1, §2, §3, §4, §5

SMILES | pIC50 (MIA Paca-2) | pIC50 (MV-411 cell line) | pIC50 (NCI-H358) | DC50 (SHP2 protein [1]) | DC50 (SHP2 protein [2]) | DC50 (SHP2 protein [3]) | pIC50 (KYSE 520)
O=C1CCC(N2Cc3cc(CNC(=O)c4ccc(N5CCC6(CN(CCC(=O)Nc7cccc(Sc8cnc(N9CCC%10(CCNC%10)CC9)cn8)c7)C6)C5)nn4)ccc3C2=O)C(=O)N1 (stereo not shown) [Compound 111] | 5.30 to 6.00 | > 6.00 | 5.30 to 6.00 | > 1000 nM |  |  | 
CC1(N)CCN(c2cnc(Sc3cccc(NC(=O)CCCCCCN4CC5(CCN(c6ccc(C(=O)NCc7ccc8c(c7)CN(C7CCC(=O)NC7=O)C8=O)nc6)C5)C4)c3)cn2)CC1 (stereo not shown) [Compound 186] |  |  |  | < 100 nM | < 100 nM | < 100 nM | 
C[C@@H]1OCC2(CCN(c3cnc(Sc4cccc(NC(=O)c5ccc(N6CCC(N7CC=C(c8ccc(C(=O)NCc9ccc%10c(c9)CN(C9CCC(=O)NC9=O)C%10=O)nn8)CC7)CC6)c(F)c5)c4)cn3)CC2)[C@@H]1N (stereo partly drawn) [Compound 519, N-{[2-(2,6-oxohexahydropyridine-3-yl)-1-oxo-2,3-dihydro-1H-isoindol-5-yl]methyl}-6-(1-{1-[2-fluoro-4-({[3-({5-[(3S,4S)-4-amino-3-methyl-8-aza-2-oxaspiro[4.5]decan-8-yl]pyrazin-2-yl}thio)phenyl]amino}carbonyl)phenyl]hexahydropyridine-4-yl}-1,2,3,6-tetrahydropyridin-4-yl)-1,2-diazacyclohexane-3-formamide hydrochloride] |  | > 6.00 |  |  |  | < 100 nM | 5.30 to 6.00
CC1(N)CCN(c2cnc(Sc3cccc(NC(=O)CCCCCCN4CC5(CCN(c6ccc(C(=O)NCc7ccc8c(c7)CN(C7CCC(=O)NC7=O)C8=O)nc6Cl)C5)C4)c3)cn2)CC1 (stereo not shown) [Compound 200] |  |  |  | < 100 nM | < 100 nM | < 100 nM | 
CC1(N)CCN(c2cnc(Sc3cccc(NC(=O)CCCCCCCN4CC5CN(c6ccc(C(=O)NCc7ccc8c(c7)CN(C7CCC(=O)NC7=O)C8=O)nn6)CC5C4)c3)cn2)CC1 (stereo not shown) [Compound 100] |  |  |  | < 100 nM | < 100 nM | < 100 nM | 
CC1(N)CCN(c2cnc(Sc3cccc(NC(=O)CCCCCCN4CC5(CCN(c6ncc(C(=O)NCc7ccc8c(c7)CN(C7CCC(=O)NC7=O)C8=O)cc6Cl)C5)C4)c3)cn2)CC1 (stereo not shown) [Compound 181] | 5.30 to 6.00 |  |  | < 100 nM | < 100 nM | < 100 nM | 
Cc1ncsc1-c1ccc([C@H](C)NC(=O)[C@@H]2C[C@@H](O)CN2C(=O)[C@@H](NC(=O)c2cnc(N3CCC4(CN(CCC(=O)Nc5cccc(Sc6cnc(N7CCC(C)(N)CC7)cn6)c5)C4)C3)nc2)C(C)(C)C)cc1 [Compound 64] |  |  |  | < 100 nM | 100 to 1000 nM | 100 to 1000 nM | 
CN(Cc1ccc2c(c1)CN(C1CCC(=O)NC1=O)C2=O)C(=O)c1ccc(N2CCN(CCCCCCCCC(=O)Nc3cccc(Sc4cnc(N5CCC(C)(N)CC5)cn4)c3)C(C(F)(F)F)C2)nn1 (stereo not shown) [Compound 175] | 5.30 to 6.00 |  |  | < 100 nM |  |  | 
CC1(N)CCN(c2cnc(Sc3cccc(NC(=O)CCCCCOC4CC5(CCN(c6ccc(C(=O)NCc7ccc8c(c7)CN(C7CCC(=O)NC7=O)C8=O)cc6F)CC5)C4)c3)cn2)CC1 (stereo not shown) [Compound 176] |  |  |  | < 100 nM | 100 to 1000 nM | < 100 nM | 
CC1(N)CCN(c2cnc(Sc3cccc(NC(=O)CCCCCCCCN4CC=C(c5ccc(C(=O)NCc6ccc7c(c6)CN(C6CCC(=O)NC6=O)C7=O)nn5)CC4)c3)cn2)CC1 (stereo not shown) [Compound 188] |  |  |  | < 100 nM | < 100 nM | < 100 nM | 
CC1CN(c2ccc(C(=O)NCc3ccc4c(c3)CN(C3CCC(=O)NC3=O)C4=O)nn2)CC(C)N1CCCCCCCCC(=O)Nc1cccc(Sc2cnc(N3CCC(C)(N)CC3)cn2)c1 (stereo not shown) [Compound 138] |  | > 6.00 |  | < 100 nM | < 100 nM | < 100 nM | 
C[C@@H]1OCC2(CCN(c3cnc(Sc4cccc(NC(=O)c5ccc(N6CCC(N7CCN(c8ccc(C(=O)NCc9ccc%10c(c9)CN(C9CCC(=O)NC9=O)C%10=O)cc8F)CC7)CC6)cc5)c4)cn3)CC2)[C@@H]1N (stereo partly shown) [Compound 514] |  | > 6.00 |  |  |  | > 1000 nM | 5.30 to 6.00
Cc1ncsc1-c1ccc([C@H](C)NC(=O)[C@@H]2C[C@@H](O)CN2C(=O)[C@@H](NC(=O)c2cnc(N3CC(OCCCCCCC(=O)Nc4cccc(Sc5cnc(N6CCC(C)(N)CC6)cn5)c4)C3)nc2)C(C)(C)C)cc1 [Compound 86] |  |  |  | < 100 nM | < 100 nM | < 100 nM | 
CC1(N)CCN(c2cnc(Sc3cccc(NC(=O)c4ccc(N5CCC(N6CC=C(c7cnc(C(=O)NCc8ccc9c(c8)CN(C8CCC(=O)NC8=O)C9=O)c(F)c7)CC6)CC5)c(F)c4)c3)cn2)CC1 (stereo not shown) [Compound 414] |  | < 5.30 |  |  |  | < 100 nM | 5.30 to 6.00
CC1(N)CCN(c2cnc(Sc3cccc(NC(=O)CCCCCCN4CC5(CC=C(c6ccc(C(=O)NCc7ccc8c(c7)CN(C7CCC(=O)NC7=O)C8=O)nn6)CC5)C4)c3)cn2)CC1 (stereo not shown) [Compound 207] |  |  |  | < 100 nM | < 100 nM | < 100 nM | 
Cc1ncsc1-c1ccc([C@H](C)NC(=O)[C@@H]2C[C@@H](O)CN2C(=O)[C@@H](NC(=O)c2cnc(N3CC(OCCCCCCCCC(=O)Nc4ccc(Sc5cnc(N6CCC(C)(N)CC6)cn5)cc4)C3)nc2)C(C)(C)C)cc1 [Compound 75] |  |  |  | < 100 nM | < 100 nM | < 100 nM | 
CC1(N)CCN(c2cnc(Sc3cccc(NC(=O)CCCCCCN4CC5(CCN(c6ccc(C(=O)NCc7ccc8c(c7)CN(C7CCC(=O)NC7=O)C8=O)nn6)C5)C4)c3)cn2)CC1 (stereo not shown) [Compound 110] | < 5.30 |  | < 5.30 | < 100 nM | 100 to 1000 nM | 100 to 1000 nM | 
Cc1ncsc1-c1ccc([C@H](C)NC(=O)[C@@H]2C[C@@H](O)CN2C(=O)[C@@H](NC(=O)c2cnc(N3CCC(OCCCCCCCC(=O)Nc4cccc(Sc5cnc(N6CCC(C)(N)CC6)cn5)c4)CC3)nc2)C(C)(C)C)cc1 [Compound 78] |  |  |  | < 100 nM | < 100 nM | < 100 nM | 
CC1(N)CCN(c2cnc(Sc3cccc(NC(=O)CCCCCCCO[C@H]4CCN(Cc5ccc(COc6cccc7c6CN(C6CCC(=O)NC6=O)C7=O)cc5)C4)c3)cn2)CC1 (stereo partly shown) [Compound 96] | > 6.00 |  | > 6.00 | < 100 nM |  |  | 
